Like-named read-outs stand apart in the source and are kept apart here.
Assays:
[1] = target: T1, human RORγ (Homo sapiens, UniProt P51449); experiment: In vitro assay of inhibitory effect against RORγ transcriptional activity (GAL4-hRORγ LBD luciferase reporter gene assay in CHO cells); assay type: cell-based; details: for hRORγ luciferase activity, %-of-control: value in parentheses beside the > EC50 bound, vehicle-control 0.2% DMSO alone = 100%
T1 construct: human RORγ, from Ser253 to Lys518; expressed in transfected cells; host or cells: CHO cells (Chinese hamster ovary), transient co-transfection with pG5-Luc
T1 sequence (P51449 253-518): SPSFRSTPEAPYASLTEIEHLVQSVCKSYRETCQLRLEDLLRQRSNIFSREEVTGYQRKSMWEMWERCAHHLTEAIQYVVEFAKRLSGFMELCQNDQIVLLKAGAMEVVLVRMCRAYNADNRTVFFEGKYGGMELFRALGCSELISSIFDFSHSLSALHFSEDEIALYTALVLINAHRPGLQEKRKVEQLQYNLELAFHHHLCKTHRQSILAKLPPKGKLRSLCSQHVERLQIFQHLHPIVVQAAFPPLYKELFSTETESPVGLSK
Outline: (§1)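 CHO cells were transiently co-transfected with a GAL4-DBD fusion of the human (Ser253–Lys518) or mouse (Ile251–Lys516) RORγ LBD plus a GAL4-luciferase reporter. Cells were treated with 8 compound concentrations (0.2% DMSO) for 2 days at 37 °C. Luciferase was expressed as %-of-vehicle control, EC50 was curve-fitted, and cytotoxic concentrations were excluded.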

[2] = target: T2, mouse RORγ (Mus musculus, UniProt P51450); experiment: In vitro assay of inhibitory effect against RORγ transcriptional activity (GAL4-mRORγ LBD luciferase reporter gene assay in CHO cells); assay type: cell-based; details: for mRORγ luciferase activity, %-of-control: value in parentheses beside the > EC50 bound, vehicle-control 0.2% DMSO alone = 100%
T2 construct: mouse RORγ, from Ile251 to Lys516; expressed in transfected cells; host or cells: CHO cells (Chinese hamster ovary), transient co-transfection with pG5-Luc
T2 sequence (P51450 251-516): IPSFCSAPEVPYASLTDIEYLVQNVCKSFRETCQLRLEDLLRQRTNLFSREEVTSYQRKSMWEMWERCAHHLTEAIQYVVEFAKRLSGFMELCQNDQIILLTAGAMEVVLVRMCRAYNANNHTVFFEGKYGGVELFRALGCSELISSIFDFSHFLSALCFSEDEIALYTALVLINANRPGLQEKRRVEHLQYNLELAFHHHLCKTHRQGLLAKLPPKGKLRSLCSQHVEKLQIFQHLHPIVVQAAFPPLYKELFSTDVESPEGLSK
Outline: as §1

[3] = GAL4-hRORγ LBD / pG5-Luc in CHO cells, 2 days incubation
[4] = GAL4-mRORγ LBD / pG5-Luc in CHO cells, 2 days incubation
[5] = GAL4-hRORγ LBD luciferase reporter, CHO cells, read-out: LUC EC50 hRORγ
[6] = GAL4-mRORγ LBD luciferase reporter, CHO cells, read-out: LUC EC50 mRORγ

Row | Structure (SMILES) | EC50 [1, 3] [nM] | hRORγ luciferase activity, %-of-control [1] | EC50 [2, 4] [nM] | mRORγ luciferase activity, %-of-control [2] | EC50 [1, 5] [nM] | EC50 [2, 6] [nM]
1 | CC(C)C1=CN(CCC(=O)O)C(=O)N[C@]1(C)c1ccc(CCC2CCCC2)c(Cl)c1 [Example 119] | > 8000 | (74%) | > 8000 | (76%) | – | –
2 | CC(C)C1=CN(CCC(C)C(=O)O)C(=O)NC1(C)c1ccc(CCC(C)(C)C)c(Cl)c1 (single isomer, unassigned) [Example 24] | 2940 | – | 2930 | – | – | –
3 | COCCC1=CN(C23CCC(C(=O)O)(C2)C3)C(=O)N[C@@]1(C)c1ccc(CCC(C)(C)C)c(Cl)c1 [Example 274] | – | – | – | – | 8 | 8
4 | COCCC1=CN(c2ccc(C(=O)O)cn2)C(=O)N[C@@]1(C)c1ccc(C2=CCC(C)(C)CC2)c(Cl)c1 [Example 334] | – | – | – | – | 22 | 14
5 | CC(C)C1=CN(C2CN(S(C)(=O)=O)CC2C(=O)O)C(=O)N[C@@]1(C)c1ccc(CCC(C)(C)C)c(Cl)c1 (single isomer, unassigned) [Example 240] | – | – | – | – | 108 | 147
6 | CC(C)C1=CN([C@H]2C[C@H](CC(=O)O)C2)C(=O)N[C@@]1(C)c1ccc(CCC(C)(C)C)c(Cl)c1 [Example 108] | 16 | – | 21 | – | – | –
7 | COCCC1=CN(c2ccc(C(=O)O)cc2)C(=O)N[C@@]1(C)c1ccc(C2=CCC(C)(C)CC2)c(Cl)c1 [Example 332] | – | – | – | – | 12 | 13
8 | CCOC(=O)C1CNCC1N1C=C(C(C)C)[C@](C)(c2ccc(CCC(C)(C)C)c(Cl)c2)NC1=O (single isomer, unassigned) [Example 244] | – | – | – | – | 176 | 269
9 | CC(C)C1=CN(CCC(=O)O)C(=O)N[C@@]1(C)c1cc(F)c(/C=C/C(C)(C)C)c(Cl)c1 [Example 189] | 30 | – | 22 | – | – | –
10 | CC(C)(C)CCc1ccc([C@]2(C)NC(=O)N(CCC(=O)O)C=C2C2CC(C)(C)OC(C)(C)C2)cc1Cl [Example 284] | – | – | – | – | 2780 | 1500
11 | CC(C)(C)COc1ccc(C2NC(=O)N(CCCC(=O)O)C=C2C(C)(C)C)cc1Cl (single isomer, unassigned) [Example 5, 4-{5-tert-butyl-4-[3-chloro-4-(2,2-dimethylpropoxy)-phenyl]-2-oxo-3,4-dihydro-2H-pyrimidin-1-yl}-butanoic Acid] | 34 | – | 24 | – | – | –
12 | CCCCc1ccc(C2(C)NC(=O)N(CCCC(=O)O)C=C2C(C)C)cc1Cl (racemic) [Example 28] | 187 | – | 82 | – | – | –
13 | COCCN1C=C(C(C)(C)CCC(=O)O)C(C)(c2ccc(CCC(C)(C)C)c(Cl)c2)NC1=O (single isomer, unassigned) [Example 160] | 15 | – | 40 | – | – | –
14 | CC(C)C1=CN(C2CC3(CC(C(=O)O)C3)C2)C(=O)N[C@@]1(C)c1ccc(CCC(C)(C)C)c(Cl)c1 (single isomer, unassigned) [Example 233] | – | – | – | – | 69 | 72
15 | CC(C)C1=CN(CCC(=O)O)C(=O)N[C@@]1(C)c1ccc(CC2CCC2)c(Cl)c1 [Example 291] | – | – | – | – | 1080 | 138
16 | CC(C)C1=CN(CCCC(=O)O)C(=O)NC1(C)c1ccc(OCC(C)(C)C)c(Cl)c1 (single isomer, unassigned) [Example 12] | 23 | – | 17 | – | – | –
17 | CCC(C)C1=CN(CCCC(=O)O)C(=O)NC1(C)c1ccc(CCC(C)(C)C)c(Cl)c1 (single isomer, unassigned) [Example 33] | 435 | – | 617 | – | – | –
18 | CC(C)(C)CCc1ccc([C@]2(C)NC(=O)N([C@H]3C[C@H](C(=O)O)C3)C=C2C2CC(F)(F)C2)cc1Cl [Example 96] | 33 | – | 26 | – | – | –
19 | CC(C)C1=CN(CCC(=O)O)C(=O)N[C@@]1(C)c1ccc(C2CC2C(C)C)c(Cl)c1 (single isomer, unassigned) [Example 174] | 14 | – | 11 | – | – | –

Row | Structure (SMILES) | EC50 [1, 3] [nM] | hRORγ luciferase activity, %-of-control [1] | EC50 [2, 4] [nM] | mRORγ luciferase activity, %-of-control [2] | EC50 [1, 5] [nM] | EC50 [2, 6] [nM]
20 | CC(C)CCOc1ccc([C@]2(C)NC(=O)N(CCC(=O)O)C=C2C(C)C)cc1Cl [Example 150] | 21 | – | 12 | – | – | –
21 | COc1cc(N2C=C(C(C)C)[C@](C)(c3ccc(CCC(C)(C)C)c(C(F)(F)F)c3)NC2=O)ccc1C(=O)O [Example 345] | – | – | – | – | 42 | 23
22 | CC(C)C1=CN(CCCC(=O)O)C(=O)N[C@@]1(C)c1ccc(CCC2CCC2)c(Cl)c1 [Example 110] | 11 | – | 10 | – | – | –
23 | CC(C)C1=CN(C2CCC(C(=O)O)C2)C(=O)N[C@@]1(C)c1ccc(CCC(C)(C)C)c(Cl)c1 (single isomer, unassigned) [Example 279] | – | – | – | – | 16 | 22
24 | COCC(C)C1=CN(CCC(=O)O)C(=O)N[C@@]1(C)c1ccc(CCC(C)(C)C)c(Cl)c1 (single isomer, unassigned) [Example 306] | – | – | – | – | 63 | 27
25 | CC(C)C1=CN(C(C)(C)CC(=O)O)C(=O)N[C@@]1(C)c1ccc(CCC(C)(C)C)c(Cl)c1 [Example 259] | – | – | – | – | 57 | 43
26 | COCC(C)C1=CN(c2ccc(C(=O)O)cc2)C(=O)N[C@@]1(C)c1ccc(CCC(C)(C)C)c(Cl)c1 (single isomer, unassigned) [Example 308] | – | – | – | – | 32 | 25
27 | COC(C)CC1=CN(CCC(=O)O)C(=O)N[C@@]1(C)c1ccc([C@H]2C[C@@H](C(C)(C)C)C2)c(Cl)c1 (stereo partly shown) [Example 304] | – | – | – | – | 21 | 19
28 | CC(C)C1=CN(C2CCCC(C(=O)O)C2)C(=O)N[C@@]1(C)c1ccc(CCC(C)(C)C)c(Cl)c1 (single isomer, unassigned) [Example 254] | – | – | – | – | 28 | 28
29 | CC(C)C1=CN(CC2(C(=O)O)CC2)C(=O)N[C@]1(C)c1ccc(CCC(C)(C)C)c(Cl)c1 [Example 97] | 1340 | – | 3100 | – | – | –
30 | CC(C)(C)CCc1ccc(C2(C)NC(=O)N(C3CCC3)C=C2C(C)(C)CCC(=O)O)cc1Cl (single isomer, unassigned) [Example 184] | 11 | – | 22 | – | – | –
31 | CC(C)(C)C1=CN(CCCC(=O)O)C(=O)NC1c1ccc(OCCC2CCCCC2)c(Cl)c1 (racemic) [Example 3] | 182 | – | 61 | – | – | –
32 | CC(C)C1=CN(C2CCC(C(=O)O)C2)C(=O)N[C@]1(C)c1ccc(CCC(C)(C)C)c(Cl)c1 (single isomer, unassigned) [Example 63] | > 8000 | (51%) | > 8000 | (70%) | – | –
33 | CC(C)C1=CN(CCc2ccc(C(=O)O)cc2)C(=O)N[C@]1(C)c1ccc(CCC(C)(C)C)c(Cl)c1 [Example 49] | 983 | – | 832 | – | – | –
34 | CC(C)(C)C1=CN(CCC(=O)O)C(=O)N[C@@]1(C)c1ccc(CC2CCCCC2)c(Cl)c1 [Example 339] | – | – | – | – | 17 | 15
35 | CC(C)C1=CN([C@H]2C[C@H](C(=O)O)C2)C(=O)N[C@@]1(C)c1cc(Cl)c(CCC(C)(C)C)cc1F [Example 104] | 50 | – | 31 | – | – | –
36 | CC(C)C1=CN(c2ccc(C(=O)O)cc2)C(=O)N[C@@]1(C)c1ccc(COC(C)(C)C)c(Cl)c1 [Example 203] | – | – | – | – | 30 | 21
37 | CC(C)C1=CN(CCC(=O)O)C(=O)N[C@]1(C)c1ccc(C2=CCCCC2)c(Cl)c1 [Example 133] | > 8000 | (71%) | > 8000 | (88%) | – | –
38 | CC(C)(C)CCc1ccc([C@]2(C)NC(=O)N(CCCC(=O)O)C=C2C2CC(F)(F)C2)cc1Cl [Example 146] | 14 | – | 12 | – | – | –

Source: patent US10196363B2, “Dihydropyrimidin-2-one compounds and medical use thereof” (JAPAN TOBACCO INC., priority 2014, dated 2019)
